Patent US20210176992A1, “FU[…] COMBINATION OF A CL[…] AND AN AZOLE” (Bayer Aktiengesellschaft, priority 2018, published 2021)
Values joined by “and” are separate entries in the source; they are usually repeats but may differ in a detail not shown here. Equal entries are not always repeated.

Columns and labels:
[1] = system: Fusarium; experiment: Field trial winter wheat 2017, visual assessment of Fusarium control; assay type: in vivo; conditions: Laacherhof 2017, application at growth stage 63-65, evaluation Jun. 20, 2017, J1446 500 g/ha, prothioconazole 125 g a.i./ha, control 38% infestation
Method: (§1) Impact of Different Compounds on Fusarium Infestation and the DON Content; Field Trial Winter Wheat 2017 at the Laacherhof, Germany
(§2) Application was done on Jun. 1, 2017 at growth stage 63-65. Evaluation was done Jun. 20, 2017. Quantification of deoxynivalenol was performed by LC-MS/MS analysis using a Waters UPLC coupled to a Sciex API4000 mass spectrometer. The column used was a Waters Acquity HSS T3 (2.1×50 mm, 1.8 μm) and solvents were 2 mM ammonium acetate/1% acedic acid and methanol/2 mM ammonium acetate/1% acetic acid used in a 4 min gradient. The mass spectrometer was operated in negative ionization mode (MRM transitions: deoxynivalenol 355>265, 3-acetyl-deoxynivalenol 387>307, respectively). Quantification was performed by external calibration using reference compounds.
(§3) On the other hand, whereas infestation was lower upon application of C. rosea J1446 alone (45 vs. 63%), DON reduction after application of the combination of prothioconazole and C. rosea J1446 was even bigger (60 vs. 30%).

[2] = system: DON content; experiment: Field trial winter wheat 2017, deoxynivalenol quantification by LC-MS/MS; assay type: in vivo; conditions: Laacherhof 2017, application at growth stage 63-65, J1446 500 g/ha, prothioconazole 125 g a.i./ha, control 3583 ppb DON content
Method: as §1, §2, §3

OC(Cc1ccccc1Cl)(Cn1nc[nH]c1=S)C1(Cl)CC1 (stereo not drawn) [Prothioconazole, prothioconazole]
Visual Assessment Fusarium-Control [1]: 66% | DON Reduction [2]: 41% | DON Reduction ([2]; listed as prothioconazole): 40% and 41%
